Test results published in US12551479B2, “Acyl-protein thioesterase inhibitor for the treatment and/or prevention of Huntington's disease” (UNIVERSITÉ GRENOBLE ALPES, priority 2019, dated 2026).

Columns and labels:
[1] = system: Hdh^CAG140/+ mice; assay: Rotarod test; assay type: in vivo, mouse; conditions: Hdh^CAG/+ mice
Experimental: Mice littermates were grouped into mixed treatment groups. Males and females were 6 months of age at the beginning of the treatment. For each specific test, all experimental groups were tested on the same day, during the light phase and between Days 16 and 28 of treatment. Prior to testing, mice were acclimatized to the test room for a period of 30 minutes. Treatments were randomly assigned and behavioral tests were performed 12 days before the end of the delivery of the treatment. […] Mice were excluded from analysis if their performance was calculated as a significant outlier by the Grubb test. One mouse was excluded based on these criteria. Mouse weights were measured prior to the start of treatment and until the end of testing.
The Rotarod apparatus was used to measure motor coordination and balance. Rotarod test was performed over 6 consecutive days, with 3 days of accelerated rotarod and then 3 days of fixed rotarod. […] The latency and speed at which mice fall off from the rotarod were measured up to 300 sec. For a fixed rotarod, mice were evaluated for 3 trials at 10, 15, and 20 rpm on days 4, 5, and 6, respectively. […] Data are expressed as the average of the 3 trials.

[2] = system: cortical neurons derived from human induced pluripotent stem cells (iPSCs) from Huntington's disease patients; assay: BDNF-mCherry axonal trafficking in hiPSC-derived cortical neurons in microfluidic device; assay type: cell-based; conditions: 1 μM daily for 7 days vs DMSO
Experimental: Referring to FIG. 7A, the inventors again reproduced the corticostriatal network in vitro on a microfluidic device consisting of two neuronal chambers that are connected via microchannels. Experiments are performed over a period ranging from 0 to 40 days in vitro (DIV), the first 20 days for neuronal cell generation and differentiation of hiPSCs, followed by the introduction of the cells into the microfluidic device. 3 hours after introduction, cells were infected from the pre-synaptic compartment with a lentivirus encoding BDNF-mCHerry.
The human iPSC line ND42222 (RRID:CVCL_Y844 passage 42) “109Q” was obtained from Coriell Cell Repositories. This line is heterozygous for HTT p.Gln18[109] and therefore has 109 CAG repeats in one of the two HTT alleles. Amplification of human iPSCs, generation of neuronal cells and terminal differentiation were performed according to the work published in Gribaudo S. et al. (Stem Cell Reports 12, 230-244, 2019). 109Q cells were maintained on Vitronectin-coated plates (Life Technology) in mTeSRplus medium ([…] Technologies). Cultures were fed every other day and passaged by manual dissociation using 0.02% EDTA pH 7.2 (Merck Sigma-Aldrich) every 4-5 days. For neuronal differentiation, hiPSC colonies were treated (DIV0) as previously described (Nicoleau et al., 2013) in N2B27 medium consisting of 50% DMEMF-12 Glutamax, 50% neurobasal medium, 2% B27 supplement 50× without vitamin A, 1% N2 supplement, 0.1% penicillin streptomycin, and 50 μM β-mercaptoethanol (Thermofisher). Neuronal differentiation was initiated by passage of hiPSCs in N2B27 medium supplemented with SB431542 (20 μM, Tocris), LDN-193189 (100 nM, Sigma Aldrich) and XAV_939 (1 μM, Tocris) and 10 μM ROCK inhibitor (Y27632, Calbiochem) on low-adhesion culture plates (Greiner) for 6 hours. The medium was changed every day from DIV0 to DIV20. At DIV1, hiPSC aggregates were transferred to laminin poly-ornitine-coated dishes without Y27632. From DIV5 to DIV9, SB431542 was removed and FGF2 (10 ng/ml) and cyclopamine 1 μM (Merck) were added. […]

Compound: O=C(CN1CCN(C(=O)c2ccco2)CC1)Nc1cc(C(F)(F)F)ccc1Cl [ML-348]
- average speed achieved on accelerated rotarod ([1]; 4 to 40 rpm in 600, 300, 120 s, statistically significant in the 300 s condition): recover motor coordination close to that of wild-type mice
- performance on fixed speed rotarod ([1]; constant speed 10 and 15 rpm): significantly improved the performances
- anterograde and retrograde transport velocities of BDNF-mCherry vesicles [2]: not statistically significant
- linear net flow [2]: significantly increased
- number of vesicles moving in either direction (anterograde, retrograde) [2]: significantly increased
